{"source": "patent US6602487B1", "about": "“Methods and tests for producing and for inhibiting coronary artery vasospasms” (Dimera Incorporated, priority 1997, dated 2003)", "key": {"[1]": {"conditions": "vaginal administration; cited from earlier work"}, "[2]": {"assay": "Progesterone serum levels after topical ProGest cream in menopausal or postmenopausal women", "assay_type": "in vivo, human", "conditions": "topical ProGest cream 2 ml, per patient", "protocol": "An open label, controlled study was carried out in six healthy menopausal or postmenopausal women using no over-the-counter or prescription medications, medical foods or dietary supplements which would influence progesterone levels. Menopausal or postmenopausal status was determined by clinical methods. The inclusion criteria were low estrogen levels (less than or equal to 25 picograms per ml); non-use of progesterone for two weeks prior to the beginning of the study, and four weeks if medroxyprogesterone acetate was used; a body mass index less than 30; age between 40 and 65; non-smoker; at least six months after menopause (last bleeding); normal mammogram and pap smear within the past year; and reasonable reliability and client compliance. […] The cream was to be applied in 2 ml amounts on calendar days 2-15 at 8 a.m. Applications were increased to a second 2 ml application at 8 p.m. on calendar days 16-30. In addition, estrogen was applied as a […] patch. The patch used was Vivelle®, Ciba (now Novartis), Summit, N.J. The Vivelle® patch (0.05 mg/day) was applied on calendar days 0, 3, 7, 10, 14, 17, 21, 24 and 28.\nEstrogen and progesterone serum levels were determined by chemiluminescence and were conducted on calendar days 2, 9, 16, 23, and 30 at times indicated."}, "[3]": {"test_system": "coronary artery vascular muscle cells (VMC)", "assay": "Subcellular Ca2+ and PKC localization and contraction of coronary VMC stimulated with serotonin plus U46619", "assay_type": "cell-based, rhesus monkeys", "conditions": "VMC from treated monkeys, 10 μM serotonin plus 100 nM U46619", "description": "Single VMCs from the left anterior descending, circumflex, and right coronary arteries of adult rhesus monkeys were isolated and studied both as freshly dispersed and as primary cultures. The short-term primary cultured cells (never passaged) maintain the characteristics of the source tissue for 2 3 weeks, including contraction, relaxation, receptors, and membrane electrical properties. VMCs were dissociated with collagenase and protease enzymes in a potassium glutamate solution (KG) that prevent loading with Na^+, Ca^2+, or Cl^− and results in a high proportion of viable, contracting cells (Self, D. A., et al., J. Vasc. Res. 31:359-366 (1994); Rusch., N. J., et al., Physiology and Pathophysiology of the Heart, 999-1010 (1995)). The cells prepared for culture were seeded at low density in cardiovascular culture solution for mammals, fifth generation (CV5M) on glass coverslips to facilitate selection of individual cells. VMC were used for experiments 7-14 days after attaching to coverslips.\nFreshly dispersed or primary cultured VMCs on glass coverslips were placed in a chamber of laminar flow design and observed with a Zeiss Plan Neofluar 25×/0.80 water immersion objective. Ionic solution for mammals version 2 (ISM2) was continuously pumped through the chamber (at 1 ml/minute) to provide continuous equilibration and washout of drugs. After a 15 minutes equilibration period, VMC were loaded for 15 minutes at room temperature with 3 μM fluo 3 (Molecular Probes, Inc.) for sensing Ca^2− and for 10 minutes with […] hypericin (LC Laboratories) for reporting PKC. Individual VMC were stimulated by adding 20 μl of 10 μM serotonin plus 100 nM U46619 over the individual cell. After 15 seconds under no-flow conditions, continuous flow of ISM2 was reinstated and a chamber volume of approximately 300 μl was maintained. Fluorescent images were taken at 1, 2, 5, 10, 15, 20 and 30 minutes after stimulation for Ca^2+ and at 3, 4, 9, 16, 21 and 31 minutes for PKC to evaluate subcellular distribution of these signals, and to determine VMC contraction.\nISM2 contains (in mM): 100 NaCl, 4 NaHCO3, 0.5 NaH2PO4, 4.7 KCl, 1.8 CaCl2, 0.41 […], 50 HEPES (pH 7.37), and 5.5 dextrose, KG solution consists of (in mM); 140 K-glutamate, 16 NaHCO3, 0.5 NaH2PO4, 30 HEPES, and 16.5 dextrose at pH 7.3. CVSM consists of. 4.0 mM L-glutamine, 10 μg/ml ciprofloxacin (Miles Pentex/Bayer Corporation), 50 mM HEPES (pH 7.3), and 16 mM NaHCO3 dissolved in 85% MEM-Earle's'salts and 15% horse serum. Phenol red, known to have estrogenic activity, was omitted from all solutions.\nAs discussed above, the monkeys were implanted with subdermal sylastic tubing containing estrogen (E) progesterone (P) or MPA. The first step in each of the three groups was to implant sylastic tubing containing E. Two weeks later, either P or MPA were additionally implanted and maintained for another 4 weeks (6 weeks total). In the withdrawal (W) group, the E tube was withdrawn, and no tubes were implanted for the last 4 weeks."}}, "note": "Values joined by “and” are separate entries in the source; they are usually repeats but may differ in a detail not shown here. Identical values can stand only once."}
{"smiles": "CC(=O)[C@H]1CC[C@H]2[C@@H]3CCC4=CC(=O)CC[C@]4(C)[C@H]3CC[C@]12C", "note": "[P, progesterone]", "values": [{"measurement": "local concentration of progesterone in the endometrial tissue", "setting": "[1]", "value": "~7", "unit": "nanograms/ml"}, {"measurement": "Progesterone Levels", "setting": "[2]; Week 0, 1/2 H", "value": 1.6, "unit": "Nanograms/ml"}, {"measurement": "Progesterone Levels", "setting": "[2]; Week 0, 1 H", "value": 3.1, "unit": "Nanograms/ml"}, {"measurement": "Progesterone Levels", "setting": "[2]; Week 0, 2 H", "value": 2.8, "unit": "Nanograms/ml"}, {"measurement": "Progesterone Levels", "setting": "[2]; Week 0, 3 H", "value": 3.5, "unit": "Nanograms/ml"}, {"measurement": "Progesterone Levels", "setting": "[2]; Week 0, 4 H", "value": 3.3, "unit": "Nanograms/ml"}, {"measurement": "Progesterone Levels", "setting": "[2]; Week 0, 6 H", "value": 4.6, "unit": "Nanograms/ml"}, {"measurement": "Progesterone Levels", "setting": "[2]; Week 0, 12 H", "value": 2.4, "unit": "Nanograms/ml"}, {"measurement": "Progesterone Levels", "setting": "[2]; Week 1, 0 H", "value": "0.43 Nanograms/ml (2×) and 0.4 Nanograms/ml and 1.5 Nanograms/ml and 1.6 Nanograms/ml and 1.9 Nanograms/ml"}, {"measurement": "Progesterone Levels", "setting": "[2]; Week 1, 1 H (first of two columns headed 1 H), listed as Progesterone", "value": "1.0 Nanograms/ml and 1.5 Nanograms/ml and 1.3 Nanograms/ml and 1.6 Nanograms/ml and 2.0 Nanograms/ml"}, {"measurement": "Progesterone Levels", "setting": "[2]; Week 1, 1 H (second of two columns headed 1 H), listed as Progesterone", "value": "0.84 Nanograms/ml and 1.0 Nanograms/ml and 1.4 Nanograms/ml and 1.1 Nanograms/ml and 1.3 Nanograms/ml and 2.7 Nanograms/ml"}, {"measurement": "Progesterone Levels", "setting": "[2]; Week 1, 2 H", "value": "0.49 Nanograms/ml and 0.82 Nanograms/ml and 0.57 Nanograms/ml and 1.0 Nanograms/ml and 1.2 Nanograms/ml and 1.4 Nanograms/ml"}, {"measurement": "Progesterone Levels", "setting": "[2]; Week 1, 3 H", "value": "0.91 Nanograms/ml and 0.94 Nanograms/ml and 1.2 Nanograms/ml and 1.7 Nanograms/ml and 1.6 Nanograms/ml"}, {"measurement": "Progesterone Levels", "setting": "[2]; Week 1, 4 H", "value": "0.96 Nanograms/ml and 1.0 Nanograms/ml and 1.1 Nanograms/ml (2×) and 1.3 Nanograms/ml and 2.3 Nanograms/ml"}, {"measurement": "Progesterone Levels", "setting": "[2]; Week 1, 6 H", "value": "0.98 Nanograms/ml and 1.3 Nanograms/ml (2×) and 2.0 Nanograms/ml and 1.6 Nanograms/ml (2×)"}, {"measurement": "Progesterone Levels", "setting": "[2]; Week 1, 12 H", "value": "0.87 Nanograms/ml and 0.96 Nanograms/ml and 1.3 Nanograms/ml and 1.6 Nanograms/ml and 1.8 Nanograms/ml and 2.0 Nanograms/ml"}, {"measurement": "Progesterone Levels", "setting": "[2]; Week 2, 0 H", "value": "0.93 Nanograms/ml and 1.2 Nanograms/ml and 0.96 Nanograms/ml and 2 Nanograms/ml and 1.7 Nanograms/ml and 3.3 Nanograms/ml"}, {"measurement": "Progesterone Levels", "setting": "[2]; Week 2, 1 H, listed as Progesterone", "value": "0.82 Nanograms/ml and 0.94 Nanograms/ml and 1.2 Nanograms/ml and 1.3 Nanograms/ml and 14.1 Nanograms/ml and 2.4 Nanograms/ml"}, {"measurement": "Progesterone Levels", "setting": "[2]; Week 2, 1 H, listed as progesterone", "value": 14.1, "unit": "Nanograms/ml"}, {"measurement": "Progesterone Levels", "setting": "[2]; Week 2, 2 H", "value": "1 Nanograms/ml and 0.81 Nanograms/ml and 1.2 Nanograms/ml and 1.7 Nanograms/ml and 3.3 Nanograms/ml and 2.9 Nanograms/ml"}, {"measurement": "Progesterone Levels", "setting": "[2]; Week 2, 4 H", "value": "1.1 Nanograms/ml and 1.5 Nanograms/ml and 1.2 Nanograms/ml and 2.4 Nanograms/ml and 5 Nanograms/ml and 1.8 Nanograms/ml"}, {"measurement": "Progesterone Levels", "setting": "[2]; Week 2, 6 H", "value": "1 Nanograms/ml and 1.3 Nanograms/ml and 1.2 Nanograms/ml and 1.5 Nanograms/ml and 3.2 Nanograms/ml and 2.9 Nanograms/ml"}, {"measurement": "Progesterone Levels", "setting": "[2]; Week 2, 8 H", "value": "0.94 Nanograms/ml and 0.83 Nanograms/ml and 1.2 Nanograms/ml and 1.1 Nanograms/ml and 3 Nanograms/ml and 2.2 Nanograms/ml"}, {"measurement": "Progesterone Levels", "setting": "[2]; Week 2, 12 H", "value": "0.84 Nanograms/ml and 0.94 Nanograms/ml and 1.2 Nanograms/ml and 2.8 Nanograms/ml and 3.1 Nanograms/ml"}, {"measurement": "Progesterone Levels", "setting": "[2]; Week 2, 24 H", "value": "0.81 Nanograms/ml and 2 Nanograms/ml and 1.1 Nanograms/ml and 0.98 Nanograms/ml and 2.1 Nanograms/ml"}, {"measurement": "concentration at 1 h", "setting": "[2]; female, human, topical, Week 1, 1 H", "value": 1, "unit": "ng/mL"}, {"measurement": "concentration", "setting": "[2]; female, human, topical, Week 1, 3 H", "value": 1, "unit": "ng/mL"}, {"measurement": "whole cell Ca2+ (fluo 3) fluorescence after stimulation", "setting": "[3]; FIG. 3", "value": "increased significantly over control only at 1 minute"}, {"measurement": "peripheral-to-central Ca2+ ratio after stimulation", "setting": "[3]; FIG. 4", "value": "too small to be significant"}, {"measurement": "PKC signal after stimulation", "setting": "[3]; FIG. 5", "value": "failed to change PKC loci or intensity significantly from control values"}, {"measurement": "peripheral-to-central PKC ratio after stimulation", "setting": "[3]; FIG. 6", "value": "never significantly different from control"}, {"measurement": "VMC contractions (cell width) after stimulation", "setting": "[3]; FIG. 7", "value": "significantly different from 0-min controls only at 3 and 4 minutes"}]}
